Source: patent US20230355571A1, “METHOD FOR TREATING VIRAL AND BACTERIAL INFECTION THROUGH INHALATION THERAPY” (priority 2020, published 2023)
Values after ≈ are worked out from the molar mass of the structure shown. Where two headings read alike, the source gives them in different places.

Columns and labels:
[1] = for Concentration in Epithelial Lining Fluid: single 2 mL dose, 25 mL ELF, 100 percent retained
human TRPM8 (hTRPM8) = human TRPM8 (hTRPM8) (Homo sapiens, UniProt Q7Z2W7); settings: cited from earlier work
Sequence of human TRPM8 (hTRPM8) (Q7Z2W7 whole entry): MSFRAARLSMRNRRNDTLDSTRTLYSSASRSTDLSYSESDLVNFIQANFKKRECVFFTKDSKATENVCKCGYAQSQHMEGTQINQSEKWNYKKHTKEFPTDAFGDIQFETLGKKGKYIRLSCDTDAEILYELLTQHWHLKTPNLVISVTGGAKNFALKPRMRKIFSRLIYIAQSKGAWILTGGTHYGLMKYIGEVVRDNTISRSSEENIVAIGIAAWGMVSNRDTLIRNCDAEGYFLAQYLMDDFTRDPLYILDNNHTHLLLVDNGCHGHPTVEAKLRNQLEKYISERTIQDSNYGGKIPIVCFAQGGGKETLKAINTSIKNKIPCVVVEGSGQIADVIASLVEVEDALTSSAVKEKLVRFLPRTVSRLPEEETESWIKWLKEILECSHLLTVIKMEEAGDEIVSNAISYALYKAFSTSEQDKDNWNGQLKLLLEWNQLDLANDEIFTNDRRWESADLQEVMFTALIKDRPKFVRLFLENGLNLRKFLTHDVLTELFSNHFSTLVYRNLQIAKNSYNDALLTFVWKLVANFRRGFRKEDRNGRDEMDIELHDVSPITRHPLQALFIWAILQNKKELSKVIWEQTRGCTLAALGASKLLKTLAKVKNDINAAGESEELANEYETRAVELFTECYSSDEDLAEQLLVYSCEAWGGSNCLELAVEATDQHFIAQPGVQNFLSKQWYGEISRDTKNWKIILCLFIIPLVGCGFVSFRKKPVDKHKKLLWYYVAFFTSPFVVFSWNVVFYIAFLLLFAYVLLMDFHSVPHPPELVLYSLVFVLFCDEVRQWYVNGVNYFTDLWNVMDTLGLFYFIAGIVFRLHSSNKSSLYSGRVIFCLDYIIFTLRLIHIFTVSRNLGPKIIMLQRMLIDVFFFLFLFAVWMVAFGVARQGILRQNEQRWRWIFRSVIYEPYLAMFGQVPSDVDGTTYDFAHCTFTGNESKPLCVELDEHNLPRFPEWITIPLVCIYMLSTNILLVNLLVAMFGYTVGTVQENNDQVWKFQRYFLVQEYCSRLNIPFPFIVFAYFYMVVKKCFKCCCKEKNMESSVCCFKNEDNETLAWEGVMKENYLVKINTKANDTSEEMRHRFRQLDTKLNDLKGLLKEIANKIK

lymphocytes = settings: cited from earlier work
TRPV1 = TRPV1 (Homo sapiens, UniProt Q8NER1); settings: cited from earlier work
Sequence of TRPV1 (Q8NER1 whole entry): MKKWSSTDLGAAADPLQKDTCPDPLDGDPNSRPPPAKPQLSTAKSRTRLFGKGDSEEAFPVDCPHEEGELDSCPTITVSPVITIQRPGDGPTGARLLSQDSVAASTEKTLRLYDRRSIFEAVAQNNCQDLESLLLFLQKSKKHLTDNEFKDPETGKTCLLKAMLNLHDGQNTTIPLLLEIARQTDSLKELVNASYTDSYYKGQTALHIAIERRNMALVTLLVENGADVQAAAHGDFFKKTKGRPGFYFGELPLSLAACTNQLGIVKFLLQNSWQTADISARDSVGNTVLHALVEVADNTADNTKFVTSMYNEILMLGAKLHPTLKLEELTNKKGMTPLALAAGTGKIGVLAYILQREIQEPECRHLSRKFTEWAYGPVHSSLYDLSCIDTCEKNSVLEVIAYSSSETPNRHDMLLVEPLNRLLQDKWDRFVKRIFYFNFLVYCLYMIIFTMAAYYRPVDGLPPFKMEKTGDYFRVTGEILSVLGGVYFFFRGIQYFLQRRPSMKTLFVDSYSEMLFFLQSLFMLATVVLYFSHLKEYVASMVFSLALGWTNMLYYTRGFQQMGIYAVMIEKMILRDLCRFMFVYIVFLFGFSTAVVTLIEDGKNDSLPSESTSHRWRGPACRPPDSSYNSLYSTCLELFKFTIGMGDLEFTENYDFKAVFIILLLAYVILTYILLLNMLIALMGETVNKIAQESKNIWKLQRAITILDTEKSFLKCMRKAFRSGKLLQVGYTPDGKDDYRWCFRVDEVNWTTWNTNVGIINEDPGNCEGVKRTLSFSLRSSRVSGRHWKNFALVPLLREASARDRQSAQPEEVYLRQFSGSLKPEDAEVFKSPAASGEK

[2] = cited from earlier work
[3] = system: superoxide, super oxide dismutase, hydrogen peroxide, 8-isoprostanes; settings: cited from earlier work
avian coronavirus (IBV) = settings: cited from earlier work
mice [4] = assay: NOAEL, oral, mice; settings: for factor NOAEL over daily inhaled dose: 2 mL/dose 4 times per day of Table A2 composition; for NOAEL for a 62 kg adult human: extrapolated from mouse NOAEL
blood monocytes = settings: cited from earlier work
hTRPA1 = hTRPA1 (Homo sapiens, UniProt O75762); settings: cited from earlier work
Sequence of hTRPA1 (O75762 whole entry): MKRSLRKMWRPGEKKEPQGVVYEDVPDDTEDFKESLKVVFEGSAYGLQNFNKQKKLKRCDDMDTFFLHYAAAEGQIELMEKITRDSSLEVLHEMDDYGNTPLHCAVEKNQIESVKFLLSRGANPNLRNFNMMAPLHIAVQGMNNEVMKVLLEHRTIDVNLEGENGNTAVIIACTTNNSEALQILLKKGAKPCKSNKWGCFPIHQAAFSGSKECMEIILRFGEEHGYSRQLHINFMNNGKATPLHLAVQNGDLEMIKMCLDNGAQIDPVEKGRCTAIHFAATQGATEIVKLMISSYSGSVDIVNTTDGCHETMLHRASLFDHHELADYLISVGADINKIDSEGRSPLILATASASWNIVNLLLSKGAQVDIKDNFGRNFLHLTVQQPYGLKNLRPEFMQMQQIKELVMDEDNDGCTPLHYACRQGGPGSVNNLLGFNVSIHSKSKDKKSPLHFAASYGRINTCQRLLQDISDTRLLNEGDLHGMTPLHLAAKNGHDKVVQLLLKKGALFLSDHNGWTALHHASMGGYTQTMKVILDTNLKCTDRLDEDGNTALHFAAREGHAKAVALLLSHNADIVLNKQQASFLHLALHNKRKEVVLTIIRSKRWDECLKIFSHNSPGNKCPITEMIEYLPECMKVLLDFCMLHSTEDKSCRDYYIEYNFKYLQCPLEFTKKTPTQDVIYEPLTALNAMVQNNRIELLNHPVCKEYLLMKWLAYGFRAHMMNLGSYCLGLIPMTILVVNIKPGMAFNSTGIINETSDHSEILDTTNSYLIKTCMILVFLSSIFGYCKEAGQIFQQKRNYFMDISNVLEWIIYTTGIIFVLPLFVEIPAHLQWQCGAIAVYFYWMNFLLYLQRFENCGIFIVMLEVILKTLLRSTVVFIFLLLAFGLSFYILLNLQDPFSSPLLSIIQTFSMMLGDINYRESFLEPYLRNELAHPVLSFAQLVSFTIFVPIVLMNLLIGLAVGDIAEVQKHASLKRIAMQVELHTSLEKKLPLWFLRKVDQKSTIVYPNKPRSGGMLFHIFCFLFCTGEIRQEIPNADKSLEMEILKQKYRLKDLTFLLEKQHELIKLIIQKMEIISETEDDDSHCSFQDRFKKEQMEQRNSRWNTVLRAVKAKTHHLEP

monocytes = settings: cited from earlier work
[5] = system: patients with steroid-dependent bronchial asthma; settings: cited from earlier work
[6] = system: patients with reversible obstructive ventilatory disorders; settings: cited from earlier work
hTRPV2 = hTRPV2 (Homo sapiens, UniProt Q9Y5S1); settings: cited from earlier work
Sequence of hTRPV2 (Q9Y5S1 whole entry): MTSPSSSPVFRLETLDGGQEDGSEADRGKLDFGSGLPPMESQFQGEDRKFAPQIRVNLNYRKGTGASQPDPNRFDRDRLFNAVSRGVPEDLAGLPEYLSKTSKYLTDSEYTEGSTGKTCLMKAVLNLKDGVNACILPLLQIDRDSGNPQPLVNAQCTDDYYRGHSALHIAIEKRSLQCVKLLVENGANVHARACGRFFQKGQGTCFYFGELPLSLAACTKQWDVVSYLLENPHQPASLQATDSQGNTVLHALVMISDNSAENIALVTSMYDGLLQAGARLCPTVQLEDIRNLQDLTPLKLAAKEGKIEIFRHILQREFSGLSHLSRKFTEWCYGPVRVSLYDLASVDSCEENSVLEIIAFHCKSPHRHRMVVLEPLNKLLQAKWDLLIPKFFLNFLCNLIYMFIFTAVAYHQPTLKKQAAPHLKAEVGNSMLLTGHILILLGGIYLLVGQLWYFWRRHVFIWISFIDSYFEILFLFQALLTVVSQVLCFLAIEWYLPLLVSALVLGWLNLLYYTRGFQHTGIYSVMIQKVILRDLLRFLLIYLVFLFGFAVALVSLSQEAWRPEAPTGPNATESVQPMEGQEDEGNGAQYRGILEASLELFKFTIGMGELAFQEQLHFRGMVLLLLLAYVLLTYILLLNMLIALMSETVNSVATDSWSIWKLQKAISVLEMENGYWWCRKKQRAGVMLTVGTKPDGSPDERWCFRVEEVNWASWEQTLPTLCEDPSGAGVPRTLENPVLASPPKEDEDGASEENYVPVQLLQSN

mice [7] = settings: oral, mice, 28-d; cited from earlier work
E. coli (MTCC 732) = settings: cited from earlier work
S. aureus = settings: cited from earlier work
human whole blood = settings: 102 μg/mL; cited from earlier work
CB2 receptor = CB2 receptor (Homo sapiens, UniProt P34972); settings: unit inferred; read-out: Ki, CB2 receptor binding; cited from earlier work
Sequence of CB2 receptor (P34972 whole entry): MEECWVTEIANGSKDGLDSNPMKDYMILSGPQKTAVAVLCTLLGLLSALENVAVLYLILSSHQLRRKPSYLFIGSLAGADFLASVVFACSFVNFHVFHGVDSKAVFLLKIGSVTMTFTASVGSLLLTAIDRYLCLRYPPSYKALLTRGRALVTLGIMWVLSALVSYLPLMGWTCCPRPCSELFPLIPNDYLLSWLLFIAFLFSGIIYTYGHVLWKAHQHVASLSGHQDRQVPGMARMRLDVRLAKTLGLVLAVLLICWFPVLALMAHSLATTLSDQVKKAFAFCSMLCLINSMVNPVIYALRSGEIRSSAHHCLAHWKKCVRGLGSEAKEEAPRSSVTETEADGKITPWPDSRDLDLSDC

NCI-H358 cells = settings: cited from earlier work
DENV-2 (Dengue Virus 2) = settings: cited from earlier work
[8] = system: Herpes simplex virus type 1 (HSV-1); settings: cited from earlier work
K. pneumoniae = settings: cited from earlier work
P. aeruginosa = settings: cited from earlier work
[9] = system: human lung carcinoma (A549) cell line; settings: cited from earlier work

In the case of `CC12CCC(CC1)C(C)(C)O2` [1,8-cineole], the “estimated concentration in the epithelial lining fluid of the lungs” value ([1]; human) is listed as 614 µg/mL, the “activation of hTRPM8” value (human TRPM8 (hTRPM8)) is listed as “activates” and the “inhibition of IL-1β production by lymphocytes” value (lymphocytes; 0.15 μg/ml) is listed as 36%. The “inhibition of TNF-α production by lymphocytes” value (lymphocytes; 0.15 μg/ml) was 16%, the “inhibition of IL-4 production in lymphocytes” value (lymphocytes; 1.5 μg/mL) was 70% and the “inhibition of IL-5 production in lymphocytes” value (lymphocytes; 1.5 μg/mL) was 65%. The “inhibition of TNFα production in lymphocytes” value (lymphocytes; 1.5 μg/mL) was 92%, the “inhibition of cytokine production in lymphocytes, second value (cytokine not named)” value (lymphocytes; 1.5 μg/mL) was 84% and the “activation of hTRPV1” value (TRPV1) was “did not activate”. The LD50 ([2]; in vivo) was 2,480 mg/kg, the “LD50” value ([2]; oral, rat) was 2,480 mg/kg and the “LPS-stimulated 8-isoprostanes” value ([3]; 10^−5 M) was −84%. For the same compound, the “LPS-stimulated 8-isoprostanes” value ([3]; 10^−6 M) was −42%, the IC50 (avian coronavirus (IBV)) was 610 µM and the “factor NOAEL over daily inhaled dose” value (mice [4]) was 697.5 times. The “NOAEL for a 62 kg adult human” value (mice [4]) was 34,875 mg per day, the “production of LTB4 from monocytes ex vivo” value (blood monocytes; day 4, healthy volunteers) was −57.9% and the “production of PGE2 from monocytes ex vivo” value (blood monocytes; day 4, healthy volunteers) was −42.7%. For the same compound, the “production of LTB4 from monocytes ex vivo” value (blood monocytes; day 4, patients with bronchial asthma, 200 mg 3 times/day) was −40.3%, the “production of PGE2 from monocytes ex vivo” value (blood monocytes; day 4, patients with bronchial asthma) was −31.3% and the “activation of hTRPA1” value (hTRPA1) was “did not activate”. The “inhibition of IL-1β production by monocytes” value (monocytes; 0.15 μg/ml) was 61%, the “inhibition of TNFα production by monocytes” value (monocytes; 0.15 μg/ml) was 77% and the “inhibition of IL-1β production in monocytes” value (monocytes; 1.5 μg/mL) was 84%. For the same compound, the “inhibition of IL-6 production in monocytes” value (monocytes; 1.5 μg/mL) was 76%, the “inhibition of IL-8 production in monocytes” value (monocytes; 1.5 μg/mL) was 65% and the “inhibition of TNFα production in monocytes” value (monocytes; 1.5 μg/mL) was 99%. The “mean reduction in daily prednisolone dosage” value ([5]; 200 mg 3 times per day orally, 12 weeks, placebo 0.91 mg) was 3.75 mg, the “reductions in daily prednisolone dosage tolerated” value ([5]; 200 mg 3 times per day orally, 12 weeks, placebo 7%) was 36% and the “patients achieving a reduction of oral steroids” value ([5]; 1,8-cineole group, placebo four out of 16) was “Twelve of 16”. The “improvement of airway resistance” value ([6]; treatment duration eight weeks) was −21%, the “improvement of airway resistance” value ([6]; treatment duration one week) was −23% and the “activation of hTRPV2” value (hTRPV2) was “did not activate”. For the same compound, the NOAEL (mice [7]) was 562.5 mg/kg.
For `C=C1CC/C=C(\C)CC[C@@H]2[C@@H]1CC2(C)C` [β-caryophyllene], the “Concentration in Epithelial Lining Fluid” value ([1]; Table A2 Preferred Base Viral Nebulizer Liquid) was 600 µg/mL, the “Concentration in Epithelial Lining Fluid” value ([1]; Table A3 Preferred Viral Respiratory Challenged Nebulizer Liquid) was 970 µg/mL and the “Concentration in Epithelial Lining Fluid” value ([1]; Table A4 Preferred Bacterial Pneumonia Nebulizer Liquid) was 1450 µg/mL. For the same compound, the “Concentration in Epithelial Lining Fluid” value ([1]; Table A6 Preferred Base Nebulizer Liquid with Amino Acids) was 1450 µg/mL, the “Minimum Inhibitory Concentration (MIC)” value (E. coli (MTCC 732)) was 9.0 ± 2.2 µM and the LD50 ([2]; in vivo) was > 5,000 mg/kg. For the same compound, the MIC (S. aureus) was 3 µM (≈ 0.613 µg/mL), the “LPS-stimulated IL-1β and TNF-α expression” value (human whole blood) was “inhibits” and the “factor NOAEL over daily inhaled dose” value (mice [4]) was 868 times. For the same compound, the “NOAEL for a 62 kg adult human” value (mice [4]) was 43,400 mg per day, the Ki (CB2 receptor) was 0.155 µM and the “cytotoxic IC50” value (NCI-H358 cells) was 31.19 ± 2.01 µg/mL. The selectivity index (DENV-2 (Dengue Virus 2); DENV-2, non-cytostatic) was 71.1, the IC50 (DENV-2 (Dengue Virus 2)) was 22.5 µM and the “IC50, DENV-2” value (DENV-2 (Dengue Virus 2)) was 4.6 µg/mL (≈ 22.5 µM). For the same compound, the IC50 [8] was 0.25 µM, the MIC (K. pneumoniae) was 14 µM (≈ 2.86 µg/mL) and the MIC (P. aeruginosa) was 7 µM (≈ 1.43 µg/mL). For the same compound, the “cytotoxic IC50” value [9] was 28.18 ± 1.96 µg/mL.
